Source: patent publication US8021831B2, “Taxane chemosensitivity prediction test” (Board of Regents, The University of Texas System, priority 2003, dated 2011)

Legend:
[1] = test system: microtubule site; details: higher than paclitaxel, same microtubule site; cited from earlier work
[2] = test system: resistant tumor (tumor of T47D); assay: Tumor volume in tumor-bearing nude mice, resistant tumor; type: in vivo; details: 20 mg paclitaxel per day i.p., Days 34-38, until day 43
Experimental: (§1) FIG. 7. The susceptible and resistant cells (1×10^7 cells/mouse) were inoculated into nude mice. When the tumor volume reached more than 300 mm^3, 20 mg of Paclitaxel per day was intraperitoneally administered on five consecutive days (Days 34-38 after the inoculations). The tumor size was recorded on Days 20-43. […] By contrast, the volume of resistant tumor remained at 350 mm^3 until Day 43.
(§2) To further confirm the above in vitro results, an in vivo validation study was performed. The susceptible and resistant cells were inoculated into nude mice. When the tumor volume reached more than 300 mm^3, 20 mg of paclitaxel per day was intraperitoneally administered on five consecutive days (Days 34-38 after the inoculations). The tumor size was recorded on days 20-43. […] By contrast, volume of resistant tumors remained at 350 mm^3 until day 43.
as §1, with “The” for “FIG. 7. The”, “of paclitaxel” for “of Paclitaxel”, “on days” for “on Days”, “until day 43 (FIG. 7).” for “until Day 43.”

[3] = test system: Cdk1 activity in MCF-7 cells; assay: Cdk1 kinase assay after paclitaxel treatment; type: cell-based, human; details: MCF-7 control cells; paclitaxel 100 nM; 24 hr after treatment
Experimental: Twenty-four hr after transfection, cells were treated with paclitaxel (100 nM) and harvested at the indicated times. FIG. 1D—Cyclin-dependent kinase-1 (Cdk1) activity after treatment with paclitaxel in each cell. Twenty-four hr after transfection, cells were treated with paclitaxel (100 nM) and harvested at the indicated times. Activity of Cdk1 in the lysates was determined as described in Experimental procedures.
Cdk1 kinase assay. The Cdk1 protein kinase assay was performed using the SignaTECT cdc2 protein assay system (Promega, Madison, Wis.). Briefly, the harvested cells were lysed with the extraction buffer (50 mM Tris [pH 7.4], 150 mM NaCl, 0.1% Triton X-100, and 1 mM EDTA) containing protease inhibitors (100 μg/ml aprotinin and 0.5 mM phenylmethane sulphonyl fluoride) and phosphatase inhibitors (50 mM NaF). These lysates were conjugated with a substrate consisting of cdc2-specific biotinylated peptide derived from histone H1 and [γ-^32P] ATP, and incubated at 30° C. for 10 min. […] After several washings, each captured membrane was placed into a separate vial and analyzed using a liquid scintillation counter (Beckman Coulter, Palo Alto, Calif.).
(§8) To test the effects of suppression of Mad2, BubR1, or both on the spindle assembly checkpoint activated by paclitaxel, the mitotic indices were determined and the Cdk1 activity measured, both of which reflect the status of this checkpoint.

[4] = test system: MCF-7 cells; assay: Cell death analysis (trypan blue exclusion); type: cell-based, human; details: MCF-7 control cells, paclitaxel 100 nM, 48 hr
Experimental: FIG. 2B—MCF-7 cells transfected with siRNA/Mad2, BubR1, or both were examined for cell death induced by paclitaxel. Twenty-four hr after transfection, cells were treated with paclitaxel (100 nM) for 48 hr. Cell viability was assessed using trypan blue exclusion assay.
Cell death analysis. Cell death was evaluated using the trypan blue dye exclusion assay. Briefly, cells were harvested using trypsin and stained with 0.4% trypan blue dye (Sigma-Aldrich Chemical Co., St. Louis, Mo.). Trypan blue-positive and -negative cells were counted using a hemacytometer (Hausser Scientific, Horsham, Pa.) under a phase-contrast microscope (Fisher Scientific, Pittsburgh, Pa.). The results of each assay were expressed in terms of the percentage of dead cells relative to the total number of cells. Individual experiments were performed in triplicate.
Next, to determine whether these resistances were due to the reduction of cell death induced by paclitaxel, the inventors assessed the population of cell death using trypan blue exclusion.

[5] = test system: advanced drug refractory ovarian cancer; details: advanced drug refractory ovarian cancer patients; cited from earlier work
[6] = test system: previously treated metastatic breast cancer; details: previously treated metastatic breast cancer patients; cited from earlier work
[7] = test system: MCF-7; assay: Paclitaxel cytotoxicity test (MTT assay); type: cell-based, human; details: 1, 5, 10, 50 or 100 nM paclitaxel, 72 hr
Experimental: (§3) FIG. 5. Sensitivities of cell lines to Paclitaxel were judged according to a graph analysis of the Paclitaxel cytotoxicity test. […] The Paclitaxel cytotoxicity test was performed as follows. The cells were cultivated in wells of a 96-well culture plate in presence of 1, 5, 10, 50 or 100 nM Paclitaxel. After 72 hr cultivation, cell survival was measured by the MTT assay.
(§4) Drug sensitivity assays. Cells were detached by trypsinization, seeded at 2.0×10^3 cells/well in a 96-well microtiter plate, and treated with various concentrations of paclitaxel (1, 5, 10, 50, 100 and 1000 nM). Seventy-two hr later, the effects on cell growth were examined by 3-(4,5-dimethylthiazol-2-yl)-2,5-diphenyl tetrazolium bromide (MTT) assay: 20 μl of MTT solution (5 mg/ml in phosphate-buffered saline; Sigma Aldrich) was added to each well, and the cells were incubated for 4 hr at 37° C. The MTT-formazan formed by metabolically viable cells was dissolved in 100 μl of cell lysis buffer, and […] was monitored using a microplate at a wavelength of 570 nm. The percentage of cell growth was calculated by defining the absorption of cells not treated with paclitaxel (control) as 100%.
(§5) Sensitivities of four human breast cancer cell lines to paclitaxel were judged according to a graph analysis of the paclitaxel cytotoxicity test (FIG. 5). […] The paclitaxel cytotoxicity test was performed as follows. The cells were cultivated in wells of a 96-well culture plate in presence of 1, 5, 10, 50 or 100 nM paclitaxel. After 72 hr cultivation, cell survival was measured by the MTT assay.

[8] = test system: T47D; assay: Paclitaxel cytotoxicity test (MTT assay); type: cell-based, human; details: 1, 5, 10, 50 or 100 nM paclitaxel, 72 hr
Experimental: as §3, §4, §5

[9] = test system: MDA-MB231; assay: Paclitaxel cytotoxicity test (MTT assay); type: cell-based, human; details: 1, 5, 10, 50 or 100 nM paclitaxel, 72 hr
Experimental: as §3, §4, §5

[10] = test system: MDA-MB435; assay: Paclitaxel cytotoxicity test (MTT assay); type: cell-based, human; details: 1, 5, 10, 50 or 100 nM paclitaxel, 72 hr
Experimental: as §3, §4, §5

[11] = test system: CDK1 in tumor of T47D; assay: Cell cycle profiling of tumor tissue lysates, CDK1 specific activity; type: in vivo, nude mice; details: 24 hr after treatment
Experimental: (§6) FIG. 8. Lysates of the tumor tissues from tumor-bearing mice were subjected to cell cycle profiling. […] These are (A1) CDK1 specific activity 24 hr after treatment; (A2) CDK2 specific activity before treatment; (E5) MAD2 expression before treatment; (E3) Cyclin E expression before treatment; (E4) p21 expression before treatment; and (E1) CDK6 expression before treatment. The value plotted in the graph was calculated by dividing with the bigger raw value between two tumors on the each parameter.
(§7) Enzyme activity analyses of cell cycle profiling. Enzyme activity analyses of cell cycle profiling were performed using a non-radioisotopic method. Cell lysates were prepared as described for expression analysis. […] After three washes with washing buffer (0.1% NP-40, 50 mM Tris-Cl [pH 7.4]), 50 μl of the substrate mixture containing 10 μg of protein substrate, 5 mM adenosine 5′-O-(3-thiotriphosphate) (Sigma), 20 mM Tris-Cl (pH 7.4), and 0.1% Triton X-100 was added to the beads and incubated under continuous shaking at 37° C. for 10 min. Histone H1 (Upstate Biotechnology, Lake Placid, N.Y., USA) was used as the protein substrate for CDK1 and CDK2, and recombinant RB protein (amino acids 769-921) for CDK4 and CDK6. After the beads were removed, the introduced monothiophosphates in the substrate were further labeled by incubation with 10 mM iodoacetyl-biotin (Pierce) in coupling buffer (100 mM Tris-Cl [pH 8.5], 1 mM EDTA) for 90 min in the dark at room temperature. The reaction was quenched with β-mercaptoethanol, and 0.4 μg of the substrate was applied to the wells of the dot-blot device. The wells were blocked with 4% bovine serum albumin (BSA) for 30 min, then incubated with avidin-FITC (Vector) for 1 hr at 37° C.

[12] = test system: CDK1 in tumor of MDA-MB231; assay: as above; type: in vivo, nude mice; details: 24 hr after treatment
Experimental: as §6, §7

[13] = test system: various lung cancers; details: patients; cited from earlier work
[14] = test system: MCF-7 cells; assay: Mitotic indices after paclitaxel treatment; type: cell-based, human; details: MCF-7 control (siRNA/control) cells; paclitaxel 100 nM; 24 hr after treatment
Experimental: FIG. 1C—Mitotic indices of each cell after treatment with paclitaxel. Twenty-four hr after transfection, cells were treated with paclitaxel (100 nM) and harvested at the indicated times.
Calculation of mitotic indices. Cells with mitotic condensed chromatin were visualized by staining with 10 μM Hoechst 33342 dye (Aventis Pharmaceuticals Inc., Bridgewater, N.J.) in conjunction with 10 μg/ml propidium iodide; the propidium iodide was incorporated into dead cells only. […] The cells were harvested at 12, 24, and 36 hr after transfection and the mitotic indices calculated.
as §8

[15] = test system: susceptible tumor (tumor of MDA-MB231); assay: Tumor volume in tumor-bearing nude mice, susceptible tumor; type: in vivo; details: 20 mg paclitaxel per day i.p.
Experimental: as §1, §2
as §1, with “The” for “FIG. 7. The”, “of paclitaxel” for “of Paclitaxel”, “on days” for “on Days”, “until day 43 (FIG. 7).” for “until Day 43.”

| SMILES | affinity for the microtubule site relative to paclitaxel [1] [fold] | tumor volume remained at [2] [mm^3] | Cdk1 activity [3] | levels of cell death [4] | Response rate [5] | Response rate [6] | Sensitivity of cell line to paclitaxel (judged by graph analysis of cytotoxicity test) [7] | Sensitivity of cell line to paclitaxel (judged by graph analysis of cytotoxicity test) [8] | Sensitivity of cell line to paclitaxel (judged by graph analysis of cytotoxicity test) [9] | Sensitivity of cell line to paclitaxel (judged by graph analysis of cytotoxicity test) [10] | CDK1 specific activity (A1), divided by the bigger raw value [11] | CDK1 specific activity (A1), raw value [11] | CDK1 specific activity (A1), divided by the bigger raw value [12] | CDK1 specific activity (A1), raw value [12] | Response rate [13] | control cells arrested at mitosis [14] | tumor volume before decrease (start value) ([15]; Days 34-38) [mm^3] | tumor volume after decrease (end value) ([15]; Days 34-38, recorded to day 43) [mm^3] |
| --- | --- | --- | --- | --- | --- | --- | --- | --- | --- | --- | --- | --- | --- | --- | --- | --- | --- | --- |
| CC(=O)O[C@@]12CO[C@@H]1C[C@H](O)[C@@]1(C)C(=O)[C@H](O)C3=C(C)[C@@H](OC(=O)[C@H](O)[C@@H](NC(=O)OC(C)(C)C)c4ccccc4)C[C@@](O)([C@@H](OC(=O)c4ccccc4)[C@H]21)C3(C)C [docetaxel, (2R,3S)-N-carboxy-3-phenylisoserine, N-tert-butyl ester, 13-ester with 5b-20-epoxy-12a,4,7b,10b,13a-hexahydroxytax-11-en-9-one 4-acetate 2-benzoate, trihydrate] | 1.9 | – | – | – | – | – | – | – | – | – | – | – | – | – | – | – | – | – |
| CC(=O)O[C@H]1C(=O)[C@@]2(C)[C@H]([C@H](OC(=O)c3ccccc3)[C@]3(O)C[C@H](OC(=O)[C@H](O)[C@@H](NC(=O)c4ccccc4)c4ccccc4)C(C)=C1C3(C)C)[C@]1(OC(C)=O)CO[C@@H]1C[C@@H]2O [paclitaxel] | – | 350 | dramatic increase | high | 19-36% | 27-62% | resistant | resistant | susceptible | susceptible | 0.067 | 0.2 mU/ng of CDK1 | 1.0 | 3.0 mU/ng of CDK1 | 21-37% | at least 80% | 460 | 120 |
